Measurements: US20240382557A1, “INHIBITION OF TUMOR NECROSIS FACTOR, PRO-INFLAMMATORY CYTOKINES AND OTHER INFLAMMATORY RESPONSE MEDIATORS” (Allegro Pharmaceuticals, LLC, priority 2021, published 2024)
Where a SMILES comes first, the peptide text is derived from it. [ ]: non-standard residue; d: D form. Cya = N[C@@H](CS(=O)(=O)O)C(=O)O

Tests used:
[1] = system: Primary human immune cells (PBMC); assay: RNA-seq gene expression in primary human immune cells after risuteganib; format: cell-based; settings: 100 μM, 8 hours
Procedure: Purpose: In this study, RNA-seq was used to unbiasedly identify the genes regulated by risuteganib exposure in primary human immune cells. Analysis of the specific subset of genes regulated by risuteganib enables identification of biological processes and pathways modulated by the oligopeptide Methods: Primary human immune cells (PBMC) were obtained from a single human donor. The cells were separated into two groups: vehicle or 100 μM risuteganib treatment for 8 hours. After exposure, cells were collected and their total RNA isolated for RNA-seq. The generated reads were then aligned to human reference genome/transcriptome and gene expression quantified for differential expression analysis and fold change calculation. The list of regulated genes was then used to identify biological processes and pathways that are regulated after Risuteganib exposure compared to vehicle control.

[2] = Intravenous infusion to dogs, toxicity; format: in vivo; settings: 1.0 mg/kg, 5.0 mg/kg and 8.0 mg/kg
Procedure: The peptides disclosed herein may be administered at any effective dosages, as a single dose or multiple doses, and by any suitable routes of administration. For some systemic treatments, administration by injection or intravenous infusion may be preferable. […] Accordingly, in at least some applications, risuteganib may be administered, for example, by intravenous infusion at a dosage ranging from 1 mg/kg to 8 mg/kg. Other dosage levels and other routes of administration may also be suitable and effective.

Structure (SMILES): C[C@@H](O)[C@H](NC(=O)[C@H](CS(=O)(=O)O)NC(=O)CNC(=O)[C@H](CCCNC(=N)N)NC(=O)CN)C(=O)N1CCC[C@H]1C(=O)O [Risuteganib, Glycyl-L-arginylglycyl-3-sulfo-L-alanyl-L-threonyl-L-proline] (H-GRG[Cya]TP-OH)
- LILRB4 Mean Expression Rate (Normalized as Fraction Control) [1]: 0.897
- LIMK1 Mean Expression Rate (Normalized as Fraction Control) [1]: 0.9285
- LRP1 Mean Expression Rate (Normalized as Fraction Control) [1]: 0.9405
- LTB4R Mean Expression Rate (Normalized as Fraction Control) [1]: 0.834
- LTBR Mean Expression Rate (Normalized as Fraction Control) [1]: 0.9644
- MAN2B1 Mean Expression Rate (Normalized as Fraction Control) [1]: 0.9706
- MAP2K7 Mean Expression Rate (Normalized as Fraction Control) [1]: 0.9421
- MCEMP1 Mean Expression Rate (Normalized as Fraction Control) [1]: 0.86
- MCOLN1 Mean Expression Rate (Normalized as Fraction Control) [1]: 0.9403
- MMP9 Mean Expression Rate (Normalized as Fraction Control) [1]: 0.9125
- MMP25 Mean Expression Rate (Normalized as Fraction Control) [1]: 0.8959
- MT2A Mean Expression Rate (Normalized as Fraction Control) [1]: 0.9216
- MUCL1 Mean Expression Rate (Normalized as Fraction Control) [1]: 0.6866
- MYO1G Mean Expression Rate (Normalized as Fraction Control) [1]: 0.9214
- NBEAL2 Mean Expression Rate (Normalized as Fraction Control) [1]: 0.9432
- NCF4 Mean Expression Rate (Normalized as Fraction Control) [1]: 0.9433
- NECTIN2 Mean Expression Rate (Normalized as Fraction Control) [1]: 0.9479
- NFAM1 Mean Expression Rate (Normalized as Fraction Control) [1]: 0.8948
- NFKB2 Mean Expression Rate (Normalized as Fraction Control) [1]: 0.9675
- NFKBID Mean Expression Rate (Normalized as Fraction Control) [1]: 0.9203
- NPLOC4 Mean Expression Rate (Normalized as Fraction Control) [1]: 0.9748
- NRROS Mean Expression Rate (Normalized as Fraction Control) [1]: 0.9202
- ORAI1 Mean Expression Rate (Normalized as Fraction Control) [1]: 0.9714
- OSCAR Mean Expression Rate (Normalized as Fraction Control) [1]: 0.772
- OSM Mean Expression Rate (Normalized as Fraction Control) [1]: 0.8306
- OTUB1 Mean Expression Rate (Normalized as Fraction Control) [1]: 0.9445
- PDXK Mean Expression Rate (Normalized as Fraction Control) [1]: 0.973
- PFKL Mean Expression Rate (Normalized as Fraction Control) [1]: 0.9804
- PI3 Mean Expression Rate (Normalized as Fraction Control) [1]: 0.9158
- PILRA Mean Expression Rate (Normalized as Fraction Control) [1]: 0.9457
- PLAUR Mean Expression Rate (Normalized as Fraction Control) [1]: 0.9104
- PLD2 Mean Expression Rate (Normalized as Fraction Control) [1]: 0.9215
- PRAM1 Mean Expression Rate (Normalized as Fraction Control) [1]: 0.8661
- PRKCD Mean Expression Rate (Normalized as Fraction Control) [1]: 0.9631
- PSTPIP1 Mean Expression Rate (Normalized as Fraction Control) [1]: 0.9409
- QSOX1 Mean Expression Rate (Normalized as Fraction Control) [1]: 0.9355
- RAB5C Mean Expression Rate (Normalized as Fraction Control) [1]: 0.9246
- RAC2 Mean Expression Rate (Normalized as Fraction Control) [1]: 0.9763
- RAPGEF1 Mean Expression Rate (Normalized as Fraction Control) [1]: 0.9459
- RARA Mean Expression Rate (Normalized as Fraction Control) [1]: 0.8926
- RELB Mean Expression Rate (Normalized as Fraction Control) [1]: 0.9647
- RHOG Mean Expression Rate (Normalized as Fraction Control) [1]: 0.9592
- RNF19B Mean Expression Rate (Normalized as Fraction Control) [1]: 0.9469
- S100A11 Mean Expression Rate (Normalized as Fraction Control) [1]: 0.9492
- SH2B2 Mean Expression Rate (Normalized as Fraction Control) [1]: 0.879
- SIRPA Mean Expression Rate (Normalized as Fraction Control) [1]: 0.9657
- SLC11A1 Mean Expression Rate (Normalized as Fraction Control) [1]: 0.8842
- SLC26A6 Mean Expression Rate (Normalized as Fraction Control) [1]: 0.9452
- SOCS1 Mean Expression Rate (Normalized as Fraction Control) [1]: 0.9289
- SP2 Mean Expression Rate (Normalized as Fraction Control) [1]: 0.9613
- SRC Mean Expression Rate (Normalized as Fraction Control) [1]: 0.9483
- STK10 Mean Expression Rate (Normalized as Fraction Control) [1]: 0.9606
- STX4 Mean Expression Rate (Normalized as Fraction Control) [1]: 0.949
- STXBP2 Mean Expression Rate (Normalized as Fraction Control) [1]: 0.8885
- SUPT6H Mean Expression Rate (Normalized as Fraction Control) [1]: 0.9568
- TCIRG1 Mean Expression Rate (Normalized as Fraction Control) [1]: 0.892
- TFE3 Mean Expression Rate (Normalized as Fraction Control) [1]: 0.9731
- TICAM1 Mean Expression Rate (Normalized as Fraction Control) [1]: 0.9382
- TNF Mean Expression Rate (Normalized as Fraction Control) [1]: 0.9281
- TNFRSF1B Mean Expression Rate (Normalized as Fraction Control) [1]: 0.9604
- TNFRSF4 Mean Expression Rate (Normalized as Fraction Control) [1]: 0.9427
- TNFRSF13B Mean Expression Rate (Normalized as Fraction Control) [1]: 0.8508
- TNFRSF14 Mean Expression Rate (Normalized as Fraction Control) [1]: 0.9239
- TNFSF9 Mean Expression Rate (Normalized as Fraction Control) [1]: 0.8416
- TOM1 Mean Expression Rate (Normalized as Fraction Control) [1]: 0.9211
- TRAF3IP2 Mean Expression Rate (Normalized as Fraction Control) [1]: 0.9472
- TREM1 Mean Expression Rate (Normalized as Fraction Control) [1]: 0.9084
- TRPM2 Mean Expression Rate (Normalized as Fraction Control) [1]: 0.9391
- TYK2 Mean Expression Rate (Normalized as Fraction Control) [1]: 0.9711
- TYROBP Mean Expression Rate (Normalized as Fraction Control) [1]: 0.9329
- UNC13D Mean Expression Rate (Normalized as Fraction Control) [1]: 0.9577
- ZC3H12A Mean Expression Rate (Normalized as Fraction Control) [1]: 0.9757
- ZP3 Mean Expression Rate (Normalized as Fraction Control) [1]: 0.8491
- ZYX Mean Expression Rate (Normalized as Fraction Control) [1]: 0.9139
- genes associated with TNF-a pro-inflammatory pathway (pathway analysis) ([1]; adjusted p-value=6.22E-3): down-regulated
- NA Mean Expression Rate (Normalized as Fraction Control) ([1]; gene printed as NA): 0.9077
- toxicity or side effects [2]: without significant toxicity or side effects
